The series can be described thus: Solubility of [RuCl2(arene)]2 complexes in 100 ml of solvent at 25° C. in various solvents.

For [RuCl2(mesitylene)]2, where the note is “solvent Acetone”, the “solubility in 100 ml of solvent, Acetone” value is given as 0.01 g/100 ml. Further, the “solubility in 100 ml of solvent, Chloroform” value (solvent Chloroform) was determined as 0.3 g/100 ml. For the same substance, for the setting “solvent Methanol”, the “solubility in 100 ml of solvent, Methanol” value was 0.03 g/100 ml. For the same substance, the “solubility in 100 ml of solvent, THF” value (solvent THF) was 0.5 g/100 ml. The “solubility in 100 ml of solvent, Toluene” value (solvent Toluene) came to 0.2 g/100 ml.

For the origin of these results see patent US7880025B2, “Ruthenium silyl-arene complex , and method for production thereof” (Takasago International Corporation, priority 2009, dated 2011).
